Data set [1] has as its system Artemia franciscana. Briefly: Ecotoxicity toward aquatic life, Artoxkit M immobilization test. In kind it is in vivo. Conditions: for EC50: Artemia franciscana; for Class: acute toxicity rating scale by Fish and Wildlife Service. As for the experimental part:
To determine the EC50 parameter for compounds, tests were carried out on marine crustaceans—Artemia franciscana (A. franciscana). The methodology proposed in the Artoxkit M test (MicroBioTests Inc., Gent, Belgium) was developed according to the ASTM E1440-91 standard.
The hatching process was started first. For this purpose, 50 mg of cysts was transferred to the Petri dishes attached to the Artoxkit M set, which were then immersed in 10 mL of artificial seawater with a salinity of 35‰ (a medium for the development of the tested organisms, as well as a solvent for preparing solutions of the tested compounds) and placed at a temperature of 25 °C, with access to light (6000–10,000 lux) for 30 h. Then, 2 h before placing them on the Artoxkit M plates, 20 mg of spirulina was added to cultured artemias. In addition, 1 h before the analysis, the used seawater was oxygenated by passing a stream of air through the solution. To each of the four cells in a given row of a plate from the Artoxkit M kit, 1 mL of solution at the specified concentrations (or the appropriate medium in the case of a control) were introduced. In the first column of cells (a control sample and five selected concentrations), no less than 30 artemias were placed from previously prepared Petri dishes. Then, from the first cell in the first column, artemias were collected at the selected concentration and added to the next three cells in the selected row, 10 organisms per cell. After the organisms were introduced into the appropriate cells, the plates were covered with Parafilm and then closed with a plastic cap. The prepared kit was incubated at 25 °C and protected from light. Number of motionless organisms were counted after 24 and 48 h. Immobilization was then calculated (eq 1) in relation to the number of organisms at the start of the test: [drawing 1] 1
Next, the dependence between the effect and concentration of the tested compounds was plotted, and on this basis, an EC50 value was determined.

The nature of data set [2]: Octanol–water partition coefficient, shake-flask method (OECD Test No. 107). Format: physicochemical. As to the method: The octanol–water partition coefficients (KOW) of the synthesized products were estimated by the shake-flask method according to the OECD Test No. 107 guidelines (Partition Coefficient n-Octanol/Water: Shake-Flask Method). Measurements were performed using mutually saturated distilled water and 1-octanol in a glass vial containing a magnetic stir bar. First, the synthesized products were dissolved in distilled water (or 1-octanol) at a chosen concentration (0.01 mol per 1 L of octanol or water), and then proper amounts of the second solvent (octanol or water) were added. Subsequently, two duplicate runs were carried out with different solvent ratios: 4 mL of 1-octanol and 2 mL of water (2:1), 4 mL of 1-octanol and 4 mL of water (1:1), and 4 mL of 1-octanol and 8 mL of water ([…]). All vials were shaken at a constant temperature of 25 °C. After 24 h, all samples were centrifuged and the aqueous and octanolic phases were collected with a syringe. The concentrations of compounds in water were determined spectrophotometrically using a Rayleigh UV-1601 spectrophotometer (Beijing Beifen-Ruili Analytical, China) based on calibration curves made previously (at λmax = 262 nm) vs concentration for each substance. Two repetitions of each measurement were performed in a specific solvent ratio (1:1, 1:2, and 2:1). Finally, the log KOW was calculated as the average of six results collected for each compound.
The outermost layer of the skin (stratum corneum) contains around […] water, a relatively low amount compared to the rest of the human body. Given the hydrophobic nature of 1-octanol, it can be used as a simplified model for the stratum corneum.[50] The octanol–water partition coefficient (KOW) value represents the proportion between the concentrations of a substance in both liquid phases of a system composed of water and 1-octanol. […] The log KOW values are given in Figure 6 (exact values are provided in Table S4, Supporting Information).

Data set [3] in a line: Solubility in PBS. Conditions: for Solubility in PBS, Class: Pharmacopeia solubility class, PBS pH 7.4, 25 °C. As for the experimental part:
The solubility in PBS solution was determined by placing 1 g (±0.0001) of tested compound in a round-bottom flask and adding specific parts of the PBS solution in portions until full dissolution. The samples were vigorously stirred for at least 5 min before the addition of the next portion of PBS, and the systems were thermostated at 25 °C. Three repetitions of the measurement were performed for each of the compounds.
Most studies on the solubility of novel APIs are carried out with pure water, aqueous PBS solutions were much more preferred due to their higher similarity to intra- and intercellular media in epidermis, while envisaging their use in transdermal delivery and skin care applications.[60] […] The collected data are presented in Figure 8 (as well as in Table S6 in the Supporting Information).

Data set [4] is described as follows: Contact angle of aqueous solutions, sessile drop method on paraffin. In kind it is physicochemical. The settings on record: aqueous solution, 25 °C. As to the method: The contact angle (CA) measurements were carried out using a DSA100S analyzer (Krüss, Germany, accuracy ±0.1°), at 25 °C. The determination of the contact angle was based on the sessile drop method, i.e., drops of the analyzed solution were deposited on a solid surface (paraffin). The images of the drops were taken with a CCD camera, digitized, and evaluated using Young–Laplace fitting. The CA was determined as the slope of the tangent line at the contact point between the 3 phases (solution, paraffin surface, and air).
In the case of seborrheic skin, which occurs among many people affected by acne, the epidermis is covered by a hydrophobic lipid layer, which impedes the penetration of active substances, especially those that are well soluble in water. In addition, ensuring proper drug absorption through the skin can also reduce the risk of side effects and increase the effectiveness of therapy.[72] The addition of surfactants, which improve the wettability of hydrophobic surfaces, can be a solution to this problem.[73],[74] […] Wettability analyses of aqueous solutions of the new APIs were carried out on paraffin, whose hydrophobicity is similar to that of the human skin.[75] Experiments were performed at concentrations corresponding to common NA and SAL contents in commercial formulations (0.25–1.00%).[67],[76],[77] Due to low solubilities of 5–7, tests for these salts were performed at concentrations of 0.25, 0.03, and 0.01%, respectively (please see Figure S43 in the Supporting Information).

Where [5] appears, read: immobilization, motionless organisms counted after 24 and 48 h, 25 °C, read-out: EC50.
Setting [6] is: toxicity range of EC50, read-out: Range.
[7] abbreviates: shake-flask, 25 °C, 24 h, average of six results, read-out: Octanol-water partition coefficient (log Kow).
Setting [8] is: volume of PBS (pH 7.4) to dissolve 1 g, 25 °C.

≈ marks a conversion by molar mass, not a printed value. Where “and” joins values, the source holds several entries; their conditions need not be identical. Equal entries are not always repeated. Where two headings read alike, the source gives them in different places.

With `O=C(O)c1ccccc1O` [SAL, salicylic acid, reference compound], the EC50 is 300 µg/mL (≈ 2170 µM) in data set [1] (setting [5]) and 100 to 1000 µg/mL (≈ 724 to 7240 µM) in data set [1] (setting [6]). In addition, the Class result in data set [1] is “Practically Nontoxic (100-1000)”. In addition, the logP at 24 h in data set [2] is 1.82. Moreover, the “Solubility in PBS, PBS [ml]” value in data set [3] (pH 7.4) fell in the range of 100 to 1000 mL. The Contact angle in data set [4] (concentration 0.25%) worked out at 104.9 °.
In the case of `CCCCCC[n+]1cccc(C(N)=O)c1.O=C([O-])c1ccccc1O` [compound 3], the values for the EC50 in data set [1] (setting [5]) and in data set [1] (setting [6]) were 692 µg/mL and 100 to 1000 µg/mL, respectively. In data set [1], the Class result is on record as “Practically Nontoxic (100-1000)”. Further, the logP at 24 h in data set [2] (setting [7]) is -0.18. For the same compound, the “Solubility in PBS, Class” value in data set [3] is “Very Soluble (<1)”. In addition, the “Solubility in PBS, PBS [ml]” value in data set [3] (setting [8]) is less than 1 mL. The Contact angle in data set [4] (concentration 0.25%) is on record as 107.0 °; in data set [4] (concentration 0.50%), 103.4 °; in data set [4] (concentration 1.00%), 98.51 °.
As for `CCCCCCCC[n+]1cccc(C(N)=O)c1.O=C([O-])c1ccccc1O` [compound 4], the EC50 was 360 µg/mL in data set [1] (setting [5]) and 100 to 1000 µg/mL in data set [1] (setting [6]). Besides, the Class result in data set [1] is “Practically Nontoxic (100-1000)”. Further, the logP at 24 h in data set [2] (setting [7]) stood at 0.07. In addition, in data set [3], the “Solubility in PBS, Class” value is listed as “Soluble (10-30)”. Further, the “Solubility in PBS, PBS [ml]” value in data set [3] (setting [8]) was 10 to 30 mL. In addition, the Contact angle is 94.1 ° and 94 ° in data set [4] (concentration 0.25%); 79.0 ° in data set [4] (concentration 0.50%); 61.2 ° and 61 ° in data set [4] (concentration 1.00%).
Consider `CCCCCCCCCC[n+]1cccc(C(N)=O)c1.O=C([O-])c1ccccc1O` [compound 5], for which the EC50 is 138 µg/mL in data set [1] (setting [5]) and 100 to 1000 µg/mL in data set [1] (setting [6]). Moreover, in data set [1], the Class result is listed as “Practically Nontoxic (100-1000)”. In data set [2] (setting [7]), the logP at 24 h came to 0.59. Besides, the “Solubility in PBS, Class” value in data set [3] is recorded as “Slightly Soluble (100-1000)”. Besides, in data set [3] (setting [8]), the “Solubility in PBS, PBS [ml]” value is 100 to 1000 mL. For the same compound, in data set [4] (concentration 0.25%), the Contact angle was 50.7 °.

Source of the values: paper PMC11372839, “Unraveling the Potential of Vitamin B3-Derived Salts with a Salicylate Anion as Dermal Active Agents for Acne Treatment” (Molecular Pharmaceutics, 2024).
